Measured values: patent publication US6410585B1, “Inhibitors of protein tyrosine phosphatase” (priority 1997, dated 2002)

Assays:
rat PTP1 = target: T1, rat PTP1 (Rattus norvegicus, UniProt P20417); assay: PTP1 assay, pNPP hydrolysis (rate of change in A405); format: biochemical; conditions: pNPP hydrolysis, Table 2, read-out: PTP1 Inhib PTP1N. % Inhib; for inhibition at 1 µM: Conc 1 uM; for inhibition at 10 µM: Conc 10 uM; for inhibition at 100 µM: Conc 100 uM
T1 construct: a C-terminal truncation of rat PTP1 (amino acid residues 1-322); GST (N, cleaved yes); made in house; host or cells: E. coli strain TG-1 (pGEX-2T)
T1 sequence (P20417 1-322): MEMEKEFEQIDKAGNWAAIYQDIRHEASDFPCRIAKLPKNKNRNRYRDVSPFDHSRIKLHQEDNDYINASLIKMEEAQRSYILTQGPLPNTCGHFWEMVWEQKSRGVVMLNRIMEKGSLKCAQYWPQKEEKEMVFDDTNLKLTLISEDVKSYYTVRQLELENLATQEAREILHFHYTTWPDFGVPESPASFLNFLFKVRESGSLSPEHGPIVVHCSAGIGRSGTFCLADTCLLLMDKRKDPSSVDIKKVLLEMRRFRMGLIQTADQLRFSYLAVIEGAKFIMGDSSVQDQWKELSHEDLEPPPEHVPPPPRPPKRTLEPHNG
Procedure, shortened: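 Thrombin-cleaved rat PTP1 residues 1-322 (35 ng/ml) with 1 mM pNPP in 50 mM Hepes pH 7.2, NaCl, EDTA, DTT, BSA at room temperature. A405 rate followed 60 min. Compounds added as 10 mM solutions; percent inhibition relative to plate DMSO controls, 1 mM orthovanadate as full-inhibition control.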

human PTP1B = target: T2, human PTP1B (Homo sapiens, UniProt P18031); assay: PTP1B assay, pNPP hydrolysis, assayed exactly as for PTP1; format: biochemical; conditions: for inhibition at 1 µM: Conc 1 uM; for inhibition at 1 µM / inhibition at 10 µM / inhibition at 100 µM: Table 2, read-out: PTP1B Inhib PTP1B. % Inhib; for PTP1B Inhib PTP1B. % Inhib: Table 2
T2 construct: human PTP1B (amino acid residues 1-321); made in house; host or cells: E. coli BL21(DE3)
T2 sequence (P18031 1-321): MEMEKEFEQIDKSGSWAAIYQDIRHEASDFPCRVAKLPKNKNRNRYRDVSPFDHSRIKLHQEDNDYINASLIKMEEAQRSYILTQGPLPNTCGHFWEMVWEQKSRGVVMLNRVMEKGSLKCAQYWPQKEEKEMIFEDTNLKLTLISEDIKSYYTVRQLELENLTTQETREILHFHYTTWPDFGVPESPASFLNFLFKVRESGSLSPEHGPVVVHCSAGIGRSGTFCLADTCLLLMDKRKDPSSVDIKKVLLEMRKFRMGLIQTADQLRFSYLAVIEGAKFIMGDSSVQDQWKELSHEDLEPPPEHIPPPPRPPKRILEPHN
Description: The equivalent construct of human PTP1B (amino acid residues 1-321) (cloned from a human placental library), without the GST tag and thrombin cleavage site, was inserted into a pMB replicon and transformed into E. coli BL21(DE3), a strain containing a chromosomal copy of the gene for T7 RNA polymerase under control of a lacUV5 promoter. Expression of PTP1B was induced with isopropyl thiogalactose and the soluble protein was purified by ion exchange, hydrophobic interaction and gel exclusion chromatography for use in the assay to identify PTP inhibitors.
PTP1 activity is measured using either p-nitrophenol phosphate (pNPP) or a triphosphopeptide (that matches residues 1142 through 1153 of the β-subunit and the insulin receptor) as substrate in a 96-well microtiter plate format. An assay pH of 7.2 is used for standard assays (measured 405=9800 at pH 7.2).
Human PTP1B, which is highly homologous to rat PTP1, was assayed exactly as described above for PTP1.
Standard assays are conducted at room temperature in a total volume of 0.2 ml that contains Hepes buffer (50 mM, pH 7.2), NaCl (50 mM), EDTA (1 mM), DTT (1 mM), bovine serum albumin (1 mg/ml), pNPP (1 mM) and PTP1 (35 ng/ml). Compounds (2 μl of 10 mM solutions) are pipetted into wells of microtiter plates followed by 198 μl of premixed reaction mix (with PTP1 and pNPP added immediately before use). The rate of change in A405 is recorded for 60 min. Two wells on each plate contain DMSO controls and two wells contain sodium orthovanadate (1 mM) which inhibits PTP1-catalyzed hydrolysis of pNPP completely. Data are expressed as percent inhibition relative to the average of the DMSO controls measured on the same microtiter plate.

| Structure (SMILES) | inhibition at 1 µM (rat PTP1) | inhibition at 10 µM (rat PTP1) | inhibition at 100 µM (rat PTP1) | inhibition at 1 µM (human PTP1B) | inhibition at 10 µM (human PTP1B; Conc 10 uM) | inhibition at 100 µM (human PTP1B; Conc 100 uM) | PTP1B Inhib PTP1B. % Inhib (human PTP1B; Conc 10 uM) | PTP1B Inhib PTP1B. % Inhib (human PTP1B; Conc 100 uM) |
| --- | --- | --- | --- | --- | --- | --- | --- | --- |
| CCCCCNC(=O)C(Cc1ccc(OC(COO)COO)cc1)NC(=O)C(Cc1ccccc1)NC(=O)CCC(=O)O (stereo not shown) | 37% | 84% | 97% | 45% | 87% | 99% |  |  |
| CCCCCNC(=O)C(Cc1ccc(OC(COO)COO)cc1)NC(=O)C(Cc1ccccc1)NC(=O)OC(C)(C)C (stereo not shown) | 9% | 42% | 88% | 7% | 48% | 91% |  |  |
| CCCCCNC(=O)C(Cc1ccc(OC(COO)COO)cc1)NC(=O)C(C)NC(=O)OC(C)(C)C (stereo not shown) | 0% | 22% | 76% | 7% | 36% | 83% |  |  |
| CCCCCNC(=O)C(Cc1ccc(OC(COO)COO)cc1)NC(=O)N(Cc1cccc(C(=O)O)c1)Cc1cccc(C(F)(F)F)c1 (stereo not shown) |  |  |  | 3% | 9% | 58% |  |  |
| CCCCCNC(=O)C(Cc1ccc(OC(COO)COO)cc1)NC(=O)N(Cc1ccccc1)C(CCc1ccccc1)CC(=O)O (stereo not shown) |  |  |  | 5% | 8% | 42% |  |  |
| CCCCCNC(=O)C(Cc1ccc(OC(COO)COO)cc1)NC(=O)N1CCN(C(=O)OC(C)(C)C)CC1 (stereo not shown) |  |  |  | 19% | 68% | 95% | 63% | 92% |
| CCCCCNC(=O)C(Cc1ccc(OC(COO)COO)cc1)NC(=O)Nc1cccc(C(=O)O)c1 (stereo not shown) |  |  |  | 17% | 63% | 94% |  |  |
| CCCCCNC(=O)[C@H](Cc1ccc(OC(C(=O)O)C(=O)O)cc1)NC(=O)C(Cc1ccccc1)NC(=O)OC(C)(C)C (stereo partly shown) |  |  |  | 2% | 8% | 44% |  |  |
| CCCCCNC(=O)C(Cc1ccc(OC(COO)COO)cc1)NC(=O)C(Cc1ccccc1)NC(=O)NC(C)(C)C (stereo not shown) |  |  |  | 9% | 40% | 86% |  |  |
| CCCCCNC(=O)C(Cc1ccc(OC(COO)COO)cc1)NC(=O)C(Cc1cccc2ccccc12)NC(=O)OC(C)(C)C (stereo not shown) |  |  |  | 3% | 33% | 86% |  |  |
| CCCCCNC(=O)C(Cc1ccc(OC(COO)COO)cc1)NC(=O)C(CCCCNC(=O)OCc1ccccc1)NC(=O)OC(C)(C)C (stereo not shown) |  |  |  | 6% | 28% | 79% |  |  |
| CCCCCNC(=O)C(Cc1ccc(OCCOO)c(COO)c1)NC(=O)N(Cc1ccccc1)Cc1ccccc1 (stereo not shown) |  |  |  | 11% | 45% | 87% |  |  |
| CCCCCNC(=O)C(Cc1ccc(OC(COO)COO)cc1)NC(=O)C(CCSC)NC(=O)OC(C)(C)C (stereo not shown) |  |  |  | 5% | 25% | 74% | 30% | 82% |
| CCCCCNC(=O)C(Cc1ccc(OC(COO)COO)cc1)NC(=O)C(CC[S+](C)[O-])NC(=O)OC(C)(C)C (stereo not shown) |  |  |  | 7% | 21% | 67% |  |  |
| CCCCCNC(=O)C(Cc1ccc(OC(COO)COO)cc1)NC(=O)C(Cc1c(F)c(F)c(F)c(F)c1F)NC(=O)OC(C)(C)C (stereo not shown) |  |  |  | 5% | 25% | 80% |  |  |
| CCCCCNC(=O)C(Cc1ccc(OCCOO)c(COO)c1)NC(=O)CCc1ccccc1 (stereo not shown) |  |  |  | 4% | 15% | 60% |  |  |
| CCCCCNC(=O)C(Cc1ccc(OC(COO)COO)cc1)NC(=O)C(CC(C)C)NC(=O)OC(C)(C)C (stereo not shown) |  |  |  | 4% | 24% | 76% |  |  |
